Ki and EC50 data for eleven compounds are collected here from BindingDB's records for doi:10.1124/mol.112.080291 (University of California San Diego, 2014).

Where “and” joins values, the source holds several entries; their conditions need not be identical. Identical values can stand only once. Bounds are passed on as bounds.

Broadly, the Ki is the equilibrium dissociation constant of an inhibitor or competing ligand from its target. Lower therefore signals tighter binding. Broadly, the EC50 is the concentration needed to bring the measured effect to its halfway point. Read a low EC50 as higher potency in that assay.

Common to all, as to test: Synthesizing Selective Agonists for the ?7 Nicotinic Receptor with in situ Click-Chemistry on Acetylcholine Binding Protein Templates.
The target in test [1] is T1, 5-hydroxytryptamine receptor 3A (Mus musculus, UniProt P23979).
T1 sequence (P23979 whole entry): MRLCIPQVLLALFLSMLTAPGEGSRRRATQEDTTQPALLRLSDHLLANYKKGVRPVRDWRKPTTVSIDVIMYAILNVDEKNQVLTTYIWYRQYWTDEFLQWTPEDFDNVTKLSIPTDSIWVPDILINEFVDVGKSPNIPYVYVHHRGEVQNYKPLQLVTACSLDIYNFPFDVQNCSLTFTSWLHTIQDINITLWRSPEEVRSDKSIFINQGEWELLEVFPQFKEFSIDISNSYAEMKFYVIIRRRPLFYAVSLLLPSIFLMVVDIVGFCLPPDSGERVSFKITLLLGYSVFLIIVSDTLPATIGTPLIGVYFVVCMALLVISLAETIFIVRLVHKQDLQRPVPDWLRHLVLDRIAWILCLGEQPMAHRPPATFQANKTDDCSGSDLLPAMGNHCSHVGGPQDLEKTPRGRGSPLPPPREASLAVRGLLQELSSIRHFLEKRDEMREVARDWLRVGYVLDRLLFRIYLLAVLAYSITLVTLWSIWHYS
The note with it: pH 7.4; 37 °C. On the procedure:
(§1) Assay Description 2 Assays used to generate Ki or EC50 values. 1) SPA Assay - Quick screen binding assays were performed using 100 l of 0.2 mg/ml anti-mouse SPA antibody-binding beads (Amersham Biosciences) mixed with 33.6 g of monoclonal anti-FLAG M2 antibody from mouse (Sigma) in 0.1 M NaPO4 buffer, pH 7.0 (SPA mixture). Media (5l) collected 2 days after transfection were added to the mixture and finally 10 l of (+)-[3H]epibatidine (PerkinElmer Life Sciences) was added at a final concentration of 10 nM. Solutions were each counted for 1 min on either a Beckman LS 6500 liquid scintillation counter or Wallac 1450 Microbeta Trilux. Negative and positive controls consisted of media (5 l) from the respective transfections. Nonexpressing mutants were transfected and verified de novo in triplicate. Western immunoblots were also performed upon media (15 l) from transfections to verify the lack of expression. Competition curves and direct binding were measured following the protocol p

Test [2] has as its target Neuronal acetylcholine receptor subunit alpha-4 (Homo sapiens, UniProt P43681). As to conditions: pH 7.4; 37 °C. On the procedure:
as §1

The target in test [3] is T2, Soluble acetylcholine receptor (Aplysia californica, UniProt Q8WSF8).
T2 sequence (Q8WSF8 whole entry): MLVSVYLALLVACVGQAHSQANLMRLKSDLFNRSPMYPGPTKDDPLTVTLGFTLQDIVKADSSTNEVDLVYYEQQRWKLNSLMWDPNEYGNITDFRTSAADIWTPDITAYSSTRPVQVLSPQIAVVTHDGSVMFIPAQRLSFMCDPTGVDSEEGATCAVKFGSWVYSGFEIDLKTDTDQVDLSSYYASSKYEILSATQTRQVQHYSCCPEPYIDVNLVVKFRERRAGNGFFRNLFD
The note with it: pH 7.4; 20 °C. The protocol:
as §1

The target of test [4] is Neuronal acetylcholine receptor subunit alpha-7 (Homo sapiens, UniProt P36544). As to conditions: pH 7.4; 37 °C. The protocol:
as §1

Test [5] concerns the target Acetylcholine-binding protein (Lymnaea stagnalis, UniProt P58154). The note with it: pH 7.4; 20 °C. On the procedure:
as §1

Sequence of Acetylcholine-binding protein (P58154 whole entry): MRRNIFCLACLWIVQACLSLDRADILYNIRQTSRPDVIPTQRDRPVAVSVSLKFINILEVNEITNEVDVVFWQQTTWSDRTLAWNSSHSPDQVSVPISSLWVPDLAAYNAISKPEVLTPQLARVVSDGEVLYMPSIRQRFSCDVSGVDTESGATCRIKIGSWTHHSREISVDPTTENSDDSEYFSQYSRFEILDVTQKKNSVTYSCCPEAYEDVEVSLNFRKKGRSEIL
Sequence of Neuronal acetylcholine receptor subunit alpha-4 (P43681 whole entry): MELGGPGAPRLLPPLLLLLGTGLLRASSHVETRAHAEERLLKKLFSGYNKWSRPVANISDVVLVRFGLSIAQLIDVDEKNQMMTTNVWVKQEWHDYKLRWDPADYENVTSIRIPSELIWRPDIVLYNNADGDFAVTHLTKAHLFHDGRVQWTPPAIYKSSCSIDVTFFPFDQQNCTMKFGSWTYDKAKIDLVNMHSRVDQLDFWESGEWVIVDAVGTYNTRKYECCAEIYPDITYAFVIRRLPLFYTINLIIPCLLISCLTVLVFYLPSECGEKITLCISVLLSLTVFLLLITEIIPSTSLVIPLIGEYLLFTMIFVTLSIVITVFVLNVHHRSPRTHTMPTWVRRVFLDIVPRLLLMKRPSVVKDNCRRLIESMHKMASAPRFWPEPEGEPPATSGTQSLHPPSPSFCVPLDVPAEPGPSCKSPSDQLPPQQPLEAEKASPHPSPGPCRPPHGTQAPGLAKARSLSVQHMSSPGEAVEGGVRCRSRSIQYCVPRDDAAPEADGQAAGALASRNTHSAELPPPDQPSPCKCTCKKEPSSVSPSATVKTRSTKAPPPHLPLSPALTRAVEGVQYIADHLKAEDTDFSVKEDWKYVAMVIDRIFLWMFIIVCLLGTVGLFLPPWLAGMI
Sequence of Neuronal acetylcholine receptor subunit alpha-7 (P36544 whole entry): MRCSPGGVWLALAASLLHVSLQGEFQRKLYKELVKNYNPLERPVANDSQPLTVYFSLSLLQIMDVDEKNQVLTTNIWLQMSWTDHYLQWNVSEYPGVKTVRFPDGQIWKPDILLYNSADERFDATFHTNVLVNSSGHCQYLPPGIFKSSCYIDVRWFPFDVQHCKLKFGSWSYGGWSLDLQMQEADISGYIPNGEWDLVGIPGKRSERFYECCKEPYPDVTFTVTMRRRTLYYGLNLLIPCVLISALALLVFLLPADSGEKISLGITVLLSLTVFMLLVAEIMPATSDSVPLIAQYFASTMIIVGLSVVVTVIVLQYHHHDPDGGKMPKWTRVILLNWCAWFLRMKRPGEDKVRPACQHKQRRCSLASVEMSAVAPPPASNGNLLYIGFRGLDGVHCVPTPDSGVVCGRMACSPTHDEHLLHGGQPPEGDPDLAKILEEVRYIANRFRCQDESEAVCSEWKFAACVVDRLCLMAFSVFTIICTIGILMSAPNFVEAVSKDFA

Turning to `C[N+]1(C)[C@@H]2CC[C@H]1C[C@H](n1cc(CSc3nc4ccccc4s3)nn1)C2` [15q], the Ki in test [1] is greater than 30000 nM; in test [2], 3000 nM; in test [3], 13 nM and 8 nM; in test [5], 4 nM. In test [4], this compound came in with an EC50 of 200 nM.

For the compound `CN1[C@@H]2CC[C@H]1C[C@H](n1cc(C3(O)c4ccccc4-c4ccccc43)nn1)C2` [20t], the Ki in test [1] is greater than 30000 nM; in test [2], greater than 30000 nM; in test [3], 2000 nM and 3100 nM and > 5000 nM; in test [5], 500 nM. The compound also came in with an EC50 in test [4] of 12000 nM.

For `CN1[C@@H]2CC[C@H]1C[C@H](n1cc(C3(O)CCCCC3)nn1)C2` [11t], the Ki in test [1] was greater than 30000 nM; in test [2], greater than 30000 nM; in test [3], greater than 5000 nM; in test [5], greater than 5000 nM. The EC50 in test [4] was greater than 30000 nM.

Consider `Cn1nncc1COc1cc(=O)n(C)c2ccccc12` [alpha7 agonists 1'], for which the inhibitory constant (Ki) in test [1] was greater than 30000 nM; in test [2], 30000 nM; in test [3], 1400 nM and 170 nM; in test [5], 60 nM. The same compound yielded an EC50 in test [4] of 6000 nM.

With `CN1[C@@H]2CC[C@H]1C[C@H](n1cc(CNC(=O)c3ccco3)nn1)C2` [12t], the Ki in test [1] is greater than 30000 nM; in test [2], 20000 nM; in test [3] it was > 5000 nM and 1400 nM; in test [5], 210 nM. In test [4], this compound registered an EC50 greater than 30000 nM.

`CC(=O)c1c(OCc2cn([C@@H]3C[C@H]4CC[C@@H](C3)[N+]4(C)C)nn2)ccc2ccccc12` [22q]: the Ki is greater than 30000 nM in test [1]; greater than 30000 nM in test [2]; 200 nM and 300 nM and 900 nM in test [3]; 160 nM in test [5]. In addition, the concentration for a half-maximal effect (EC50) in test [4] is 400 nM.

In the case of `COc1ccc(C=O)c(OCc2cn([C@@H]3C[C@H]4CC[C@@H](C3)[N+]4(C)C)nn2)c1` [13q], the Ki was greater than 30000 nM in test [1]; 7000 nM in test [2]; 110 nM and 120 nM and 80 nM in test [3]; 20 nM in test [5]. The EC50 in test [4] stood at 800 nM.

For `CN1[C@@H]2CC[C@H]1C[C@H](n1cc(CNC(=O)N3c4ccccc4CCc4ccccc43)nn1)C2` [23t], the Ki in test [1] was greater than 30000 nM; in test [2] it was greater than 30000 nM; in test [3] it was 1300 nM and 1020 nM and > 5000 nM; in test [5], greater than 5000 nM. The compound also showed an EC50 in test [4] greater than 30000 nM.

With `C[N+]1(C)[C@@H]2CC[C@H]1C[C@H](n1cc(COc3ccccc3C3CCCC3)nn1)C2` [18q], the Ki is greater than 30000 nM in test [1]; 4000 nM in test [2]; 260 nM and 270 nM and 440 nM in test [3]; 70 nM in test [5]. In test [4], the EC50 stood at 400 nM.

On to `CN1[C@@H]2CC[C@H]1C[C@H](n1cc(CSc3nc4ccccc4s3)nn1)C2` [15t], for which the Ki in test [1] was 32000 nM; in test [2], 32000 nM; in test [3], 240 nM and 140 nM and 110 nM; in test [5], 40 nM. The EC50 in test [4] came to 12000 nM.

With `CC(=O)NCc1cn([C@@H]2C[C@H]3CC[C@@H](C2)[N+]3(C)C)nn1` [10q], the Ki was greater than 30000 nM in test [1]; greater than 30000 nM in test [2]; 800 nM and > 5000 nM and 900 nM in test [3]; greater than 5000 nM in test [5]. This compound also gave an EC50 in test [4] of 5000 nM.
